Measured values published in the NIST ThermoML archive (doi:10.1016/j.fluid.2008.03.004).

Assay: xn = mol fraction of the nth substance listed
Conditions: 101 kPa, Liquid; for speed of sound: Sing-around technique in a fixed-path interferometer

Cc1ccccc1C [1,2-dimethylbenzene] + COC(C)(C)C
Conditions	mass density, 315.65 K [kg/m3]	mass density, 318.15 K [kg/m3]	mass density, 320.65 K [kg/m3]	mass density, 323.15 K [kg/m3]	speed of sound, 315.65 K [m/s]	speed of sound, 318.15 K [m/s]	speed of sound, 320.65 K [m/s]	speed of sound, 323.15 K [m/s]
x2 = 0	860.179	858.054	855.927	853.803	–	1260.6	1250.7	1240.9
x2 = 0.052	853.286	851.136	848.981	846.833	–	1253.5	1243.6	1233.9
x2 = 0.101	847.168	845	842.834	840.678	–	1239	1229.1	1219.5
x2 = 0.203	833.542	831.325	829.108	826.892	–	1208.4	1198.3	1188.3
x2 = 0.303	819.996	817.731	815.461	813.194	–	1177.1	1166.9	1156.9
x2 = 0.401	806.651	804.337	802.016	799.699	–	1146.7	1136.4	1126.2
x2 = 0.499	792.544	790.173	787.797	785.421	1125.3	1114.9	1104.4	1094.1
x2 = 0.604	777.236	774.802	772.358	769.917	1092	1081.2	1070.5	1059.9
x2 = 0.707	761.858	759.355	756.834	754.356	1056.8	1045.8	1034.8	1024.2
x2 = 0.8	747.693	745.123	742.544	739.964	1024.9	1014	1003.2	992.41
x2 = 0.9	731.912	729.271	726.621	723.991	992.02	980.41	968.31	957.28
x2 = 0.95	723.834	721.145	718.446	715.742	973.42	962.22	951.04	940.07
